How the values were obtained:
Experiment in all cases: Ras-Raf disruption / FRET / MOA assay (BRAF RBD)
Type in all cases: biochemical
KRAS G12D = KRAS G12D (Homo sapiens, UniProt P01116+P62937, G12D); details: Ras-Raf disruption, with Cyclophilin A; read-out: KRAS G12D FRET data IC50
In short: (§1)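 TR-FRET in 25 mM HEPES pH 7.3, 100 mM NaCl, 5 mM MgCl2, 0.1% BSA, 0.002% Tween20 with 25 μM Cyclophilin A, 12.5 nM His6-Ras-GMPPNP, 50 nM GST-BRAF RBD; compound 10-point 3-fold series from 30 μM. After 3 h at 25 °C, Eu anti-His/APC anti-GST added for 1.5 h; IC50 from ratio decrease versus DMSO.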

KRAS G12S = KRAS G12S (Homo sapiens, UniProt P01116+P62937, G12S); details: Ras-Raf disruption, with Cyclophilin A; read-out: KRAS G12S FRET data IC50
In short: as §1

KRAS G12V = KRAS G12V (Homo sapiens, UniProt P01116+P62937, G12V); details: Ras-Raf disruption, with Cyclophilin A; read-out: KRAS G12V FRET data IC50
In short: as §1

KRAS G13C = KRAS G13C (Homo sapiens, UniProt P01116+P62937, G13C); details: Ras-Raf disruption, with Cyclophilin A; read-out: KRAS G13C FRET data IC50
In short: as §1

KRAS G13D = KRAS G13D (Homo sapiens, UniProt P01116+P62937, G13D); details: Ras-Raf disruption, with Cyclophilin A; read-out: KRAS G13D FRET data IC50
In short: as §1

KRAS Q61H = KRAS Q61H (Homo sapiens, UniProt P01116+P62937, Q61H); details: KRAS Q61H; read-out: KRAS Q61H FRET data IC50
In short: as §1

KRAS WT = KRAS WT (Homo sapiens, UniProt P01116+P62937); details: Ras-Raf disruption, with Cyclophilin A; read-out: KRAS WT FRET data IC50
In short: as §1

NRAS G12C = NRAS G12C (Homo sapiens, UniProt P01111+P62937, G12C); details: NRAS G12C; read-out: NRAS G12C FRET data IC50
In short: as §1

NRAS Q61K = NRAS Q61K (Homo sapiens, UniProt P01111+P62937, Q61K); details: NRAS Q61K; read-out: NRAS Q61K FRET data IC50
In short: as §1

NRAS Q61R = NRAS Q61R (Homo sapiens, UniProt P01111+P62937, Q61R); details: NRAS Q61R; read-out: NRAS Q61R FRET data IC50
In short: as §1

NRAS WT = NRAS WT (Homo sapiens, UniProt P01111+P62937); details: NRAS WT; read-out: NRAS WT FRET data IC50
In short: as §1

KRAS G12C = KRAS G12C (Homo sapiens, UniProt P01116+P62937, G12C); details: Ras-Raf disruption, with Cyclophilin A; read-out: KRAS G12C FRET data IC50
In short: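 His6-K-Ras G12C-GMPPNP (12.5 nM), GST-BRAF RBD (50 nM) and tagless Cyclophilin A (25 μM) incubated 3 h at 25 °C with compound (10-point 3-fold series from 30 μM), pH 7.3 HEPES buffer. Anti-His Eu/anti-GST APC added for 1.5 h; decreased TR-FRET ratio vs DMSO gives IC50.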

NRAS Q61K, sequence (P01111 whole entry Q61K): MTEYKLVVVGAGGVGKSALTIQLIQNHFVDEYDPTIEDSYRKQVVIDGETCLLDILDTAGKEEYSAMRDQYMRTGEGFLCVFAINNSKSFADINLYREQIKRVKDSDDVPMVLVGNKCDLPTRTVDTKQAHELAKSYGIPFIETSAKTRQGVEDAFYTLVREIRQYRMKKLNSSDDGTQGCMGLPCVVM
NRAS Q61K, sequence (P62937 whole entry): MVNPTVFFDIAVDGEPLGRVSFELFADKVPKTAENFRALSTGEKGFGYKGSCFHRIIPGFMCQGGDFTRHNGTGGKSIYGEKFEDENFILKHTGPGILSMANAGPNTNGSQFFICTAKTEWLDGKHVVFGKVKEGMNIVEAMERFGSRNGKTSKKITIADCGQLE
NRAS Q61R, sequence (P01111 whole entry Q61R): as the sequence (P01111 whole entry Q61K) above, with K61R counted along it
NRAS Q61R, sequence (P62937 whole entry): as the sequence (P62937 whole entry) above
KRAS WT, sequence (P01116 1-169 isoform P01116-2 limits assumed): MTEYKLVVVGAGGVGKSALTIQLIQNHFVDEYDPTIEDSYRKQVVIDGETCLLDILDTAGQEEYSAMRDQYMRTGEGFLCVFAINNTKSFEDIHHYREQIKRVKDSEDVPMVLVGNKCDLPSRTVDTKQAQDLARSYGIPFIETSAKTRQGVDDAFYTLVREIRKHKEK
KRAS WT, sequence (P62937 whole entry): as the sequence (P62937 whole entry) above
NRAS G12C, sequence (P01111 whole entry G12C): as the sequence (P01111 whole entry Q61K) above, with G12C, K61Q counted along it
NRAS G12C, sequence (P62937 whole entry): as the sequence (P62937 whole entry) above
NRAS WT, sequence (P01111 whole entry): as the sequence (P01111 whole entry Q61K) above, with K61Q counted along it
NRAS WT, sequence (P62937 whole entry): as the sequence (P62937 whole entry) above
KRAS G12D, sequence (P01116 1-169 isoform P01116-2 G12D limits assumed): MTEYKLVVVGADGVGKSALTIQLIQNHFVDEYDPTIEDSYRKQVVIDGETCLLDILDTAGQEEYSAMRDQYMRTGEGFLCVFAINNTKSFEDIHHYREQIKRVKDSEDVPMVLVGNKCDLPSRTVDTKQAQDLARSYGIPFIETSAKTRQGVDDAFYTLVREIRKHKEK
KRAS G12D, sequence (P62937 whole entry): as the sequence (P62937 whole entry) above
KRAS G12V, sequence (P01116 1-169 isoform P01116-2 G12V limits assumed): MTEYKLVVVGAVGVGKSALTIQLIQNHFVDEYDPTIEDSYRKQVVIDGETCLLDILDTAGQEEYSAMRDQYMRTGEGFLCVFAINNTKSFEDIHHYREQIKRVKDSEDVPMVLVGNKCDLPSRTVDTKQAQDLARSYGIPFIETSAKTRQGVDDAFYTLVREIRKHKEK
KRAS G12V, sequence (P62937 whole entry): as the sequence (P62937 whole entry) above
KRAS G12S, sequence (P01116 1-169 isoform P01116-2 G12S limits assumed): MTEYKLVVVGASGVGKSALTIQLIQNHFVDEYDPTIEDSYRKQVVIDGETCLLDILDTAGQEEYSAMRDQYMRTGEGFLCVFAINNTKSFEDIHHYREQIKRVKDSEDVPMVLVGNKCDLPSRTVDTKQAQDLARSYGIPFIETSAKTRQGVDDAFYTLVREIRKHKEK
KRAS G12S, sequence (P62937 whole entry): as the sequence (P62937 whole entry) above
KRAS Q61H, sequence (P01116 1-169 isoform P01116-2 Q61H limits assumed): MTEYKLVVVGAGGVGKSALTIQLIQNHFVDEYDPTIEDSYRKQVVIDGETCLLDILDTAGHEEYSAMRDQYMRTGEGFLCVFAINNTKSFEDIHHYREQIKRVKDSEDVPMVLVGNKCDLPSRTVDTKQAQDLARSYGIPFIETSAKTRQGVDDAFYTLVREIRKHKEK
KRAS Q61H, sequence (P62937 whole entry): as the sequence (P62937 whole entry) above
KRAS G13D, sequence (P01116 1-169 isoform P01116-2 G13D limits assumed): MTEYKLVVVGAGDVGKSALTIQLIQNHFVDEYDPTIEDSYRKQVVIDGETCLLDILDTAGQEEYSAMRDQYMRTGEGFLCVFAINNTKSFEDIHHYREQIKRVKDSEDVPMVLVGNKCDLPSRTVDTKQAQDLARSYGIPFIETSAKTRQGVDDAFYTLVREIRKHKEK
KRAS G13D, sequence (P62937 whole entry): as the sequence (P62937 whole entry) above
KRAS G13C, sequence (P01116 1-169 isoform P01116-2 G13C limits assumed): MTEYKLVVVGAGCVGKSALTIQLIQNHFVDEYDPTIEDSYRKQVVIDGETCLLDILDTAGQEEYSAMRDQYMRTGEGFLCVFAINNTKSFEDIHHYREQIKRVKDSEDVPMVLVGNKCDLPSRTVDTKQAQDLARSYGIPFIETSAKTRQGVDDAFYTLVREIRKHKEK
KRAS G13C, sequence (P62937 whole entry): as the sequence (P62937 whole entry) above
KRAS G12C, sequence (P01116 1-169 isoform P01116-2 G12C limits assumed): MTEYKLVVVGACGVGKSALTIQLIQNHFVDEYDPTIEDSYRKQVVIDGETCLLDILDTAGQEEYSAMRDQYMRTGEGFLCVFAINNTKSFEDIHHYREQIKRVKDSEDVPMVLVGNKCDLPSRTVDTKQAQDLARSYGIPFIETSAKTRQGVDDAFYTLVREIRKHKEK
KRAS G12C, sequence (P62937 whole entry): as the sequence (P62937 whole entry) above

SMILES | IC50 (KRAS G12D) | IC50 (KRAS G12S) | IC50 (KRAS G12V) | IC50 (KRAS G13C) | IC50 (KRAS G13D) | IC50 (KRAS Q61H) | IC50 (KRAS WT) | IC50 (NRAS G12C) | IC50 (NRAS Q61K) | IC50 (NRAS Q61R) | IC50 (NRAS WT) | IC50 (KRAS G12C)
CCn1c(-c2cccnc2[C@H](C)OC)c2c3cc(ccc31)-c1csc(n1)C[C@H](NC(=O)[C@H](C(C)C)N(C)C(=O)N(C)[C@H]1CCCN(C(=O)[C@H]3CN3)C1)C(=O)N1CCC[C@H](N1)C(=O)OCC(C)(C)C2 (atropisomer, axis not shown) [Example 295] | 1000 to 10000 nM | 1000 to 10000 nM | 1000 to 10000 nM | 1000 to 10000 nM | 1000 to 10000 nM | 100 to 1000 nM | 100 to 1000 nM | 100 to 1000 nM | 100 to 1000 nM | 1000 to 10000 nM | 100 to 1000 nM | 100 to 1000 nM
CCn1c(-c2cccnc2[C@H](C)OC)c2c3cc(ccc31)-c1csc(n1)C[C@H](NC(=O)[C@H](C(C)C)N(C)C(=O)N(C)[C@H]1CCN(C(=O)[C@H]3CN3)C1)C(=O)N1CCC[C@H](N1)C(=O)OCC(C)(C)C2 (atropisomer, axis not shown) [Example 296] | 1000 to 10000 nM | 100 to 1000 nM | 1000 to 10000 nM | 100 to 1000 nM | 1000 to 10000 nM | 100 to 1000 nM | 100 to 1000 nM | 100 to 1000 nM | 100 to 1000 nM | 100 to 1000 nM | 100 to 1000 nM | 100 to 1000 nM
CCn1c(-c2cccnc2[C@H](C)OC)c2c3cc(ccc31)-c1csc(n1)C[C@H](NC(=O)[C@H](C(C)C)N(C)C(=O)N(C)[C@H]1CCN(C(=O)[C@@H]3CN3)C1)C(=O)N1CCC[C@H](N1)C(=O)OCC(C)(C)C2 (atropisomer, axis not shown) [Example 310] | 1000 to 10000 nM | 100 to 1000 nM | 100 to 1000 nM | 100 to 1000 nM | 1000 to 10000 nM | 100 to 1000 nM | 100 to 1000 nM | 100 to 1000 nM | 100 to 1000 nM | 100 to 1000 nM | 100 to 1000 nM | 100 to 1000 nM
CCn1c(-c2cccnc2[C@H](C)OC)c2c3cc(ccc31)-c1cc(O)cc(c1)C[C@H](NC(=O)[C@H](C(C)C)N(C)C(=O)[C@]1(F)CCN(C(=O)[C@H]3CN3)C1)C(=O)N1CCC[C@H](N1)C(=O)OCC(C)(C)C2 (atropisomer, axis not shown) [Example 311] | 100 to 1000 nM | 100 to 1000 nM | 100 to 1000 nM | 10 to 100 nM | 100 to 1000 nM | 10 to 100 nM | 100 to 1000 nM | < 10 nM | 100 to 1000 nM | 100 to 1000 nM | 10 to 100 nM | < 10 nM
CCn1c(-c2cccnc2[C@H](C)OC)c2c3cc(ccc31)-c1csc(n1)C[C@H](NC(=O)[C@H](C(C)C)N(C)C(=O)N1CCC(CN(C)C(=O)[C@H]3CN3)CC1)C(=O)N1CCC[C@H](N1)C(=O)OCC(C)(C)C2 (atropisomer, axis not shown) [Example 326] | 100 to 1000 nM | 10 to 100 nM | 10 to 100 nM | 10 to 100 nM | 100 to 1000 nM | 10 to 100 nM | 10 to 100 nM | 10 to 100 nM | 10 to 100 nM | 10 to 100 nM | 10 to 100 nM | 10 to 100 nM
CCn1c(-c2cccnc2[C@H](C)OC)c2c3cc(ccc31)-c1cc(O)cc(c1)C[C@H](NC(=O)[C@H](C(C)C)N(C)C(=O)CN(C)S(=O)(=O)[C@H]1CN1C)C(=O)N1CCC[C@H](N1)C(=O)OCC(C)(C)C2 (single isomer, unassigned) [Example 91] | 100 to 1000 nM | 10 to 100 nM | 100 to 1000 nM | 10 to 100 nM | 100 to 1000 nM | 10 to 100 nM | 10 to 100 nM | 10 to 100 nM | 100 to 1000 nM | 100 to 1000 nM | 10 to 100 nM | 10 to 100 nM

Reference: US20230233569A1 (Revolution Medicines, Inc., priority 2020, published 2023)
